Measured values taken from patent US20140039004A1, “METHOD OF TREATING OF GASTROESOPHAGEAL REFLUX DISEASE” (ONO PHARMACEUTICAL CO., LTD., priority 2012, published 2014).
Read-outs that look alike come from different tables or passages of the source.

What was measured:
Type in all cases: in vivo, Cynomolgus monkeys
[1] = test system: transient lower esophageal sphincter relaxation; experiment: Action on transient lower esophageal sphincter relaxation (TLESR) (2); settings: 0.01 and 0.1 mg/kg s.c. 30 min before high-fat diet and air injection; measured for 45 minutes; vs vehicle-administered group; FIG. 3
Description: Cynomolgus monkeys (aged 4 to 6 years, female, Japan Laboratory Animals, Inc., no history of administration) were acclimated to a monkey chair for 2 days or more, and were fasted for 12 hours or more. After that, on the day of experiment, the monkeys were immobilized in the monkey chair after the measurement of body weight, and was acclimated for another one hour or more. A high-fat diet/air injection catheter and a sensor catheter for measuring pressure were inserted from a nostril and the oral cavity. A high-fat diet was injected into the stomach so that the final volume would be 80 mL, and air was then injected up to a pressure in the stomach of 20 mmHg, and maintained. The pressure in the esophagus was measured by a sensor catheter in the lower esophageal sphincter region and the positions approximately 2, 3 and 6 cm above the lower esophageal sphincter. […] The frequency of TLESR was measured for 45 minutes from the injection of high-fat diet to the end of ventilation. Here, TLESR was measured considering that the relaxation response of the lower esophageal sphincter region was longer by […] and was not elicited by peristaltic motion occurring in the esophagus, and the rate of reduction of pressure was greater than […], and measured. […]

[2] = Evaluation of penetration into the center (plasma, CSF and tissue concentration by LC/MS/MS); settings: female, cynomolgus monkey, subcutaneous, 0.1 mg/kg s.c., 180 minutes after administration; for concentration at 180 min: n=3
Description: Cynomolgus monkeys (aged 4 to 6 years, female, Japan Laboratory Animals, Inc., no history of administration) were immobilized in a monkey chair, and Compound A was subcutaneously administered thereto (0.1 mg/kg), followed by collecting blood at 180 minutes after administration. The blood samples were centrifuged at 10000 g at 4° C. for 3 minutes to collect plasma. Next, the cerebrospinal fluid was collected under anesthesia by intravenous administration of pentobarbital sodium, and the lower esophagus, the upper esophagus, the dorsal root ganglion, the spinal cord and the brain stem were then collected. Furthermore, the dorsal root ganglion and the spinal cord were collected from the first to sixth thoracic spinal cord, which controls esophageal nerves. To the collected tissue, 4 times the amount of saline per wet weight of each tissue was added, followed by homogenization using Physcotron to obtain each tissue homogenate. The number of animals was 3.
The concentration of Compound A in each tissue was measured by a LC/MS/MS method.
To the samples for 50 μL of a calibration curve and test samples of Compound A, 1 mL of ultrapure water and an internal standard substance were added under ice cold conditions, followed by stirring. To a solid phase extraction cartridge (OAS1S MAX 30 mg/1 cc, Waters Corporation) which had been conditioned in advance, each sample was loaded and washing was carried out, followed by centrifugation, and a cleaning liquid was discharged from the cartridge for drying. Further, elution was carried out with 1 mL of an acetonitrile/acetic acid mixed liquid (49:1), and the eluate was concentrated and dried under a current of nitrogen (40° C. or less). The residue was redissolved in 200 μL of a methanol/0.1 vol % acetic acid solution (70: 30) to obtain a sample for the measurement of LC/MS/MS.
The analysis by LC/MS/MS was carried out under the following conditions.
Measuring device: Nanospace 3033 (Shiseido Co., Ltd.) Analysis column: SunFire C18 3.5 μm (2.1 mm i.d.×100 mm, 3.5 μm, Waters Corporation) Mobile phase: Acetonitrile/0.1 vol % acetic acid solution (70: 30) Cleaning liquid for cleaning port (one component): 2-propanol Cleaning liquid for cleaning port (two components): Mobile phase [acetonitrile/0.1 vol % acetic acid solution (70: 30)] Flow rate: 0.2 mL/min Column temperature: 35° C. Sample temperature: 4° C. Analysis time: 13 minutes
Measuring device: API4000 (AB SCIEX) Ion source: ESI Scan type: MRM
Using the peak area ratio (standard substance/internal standard substance) obtained by the measurement of a sample for a calibration curve, the calibration curve (y=aX+b, Y: Peak area ratio, X: Concentration) was made from the single regression line by the least squares method, and the peak area ratios of test samples were applied to the calibration curve to calculate a measured value.

[3] = test system: hypersensitivity in the esophagus evoked by hydrochloric acid perfusion; experiment: Hypersensitivity model evoked by acid (nociceptive threshold to esophageal electrical stimulation)
Description: Cynomolgus monkeys (aged 4 to 6 years, female, Japan Laboratory Animals, Inc., no history of administration) were acclimated to a monkey chair for 2 days or more, and were fasted for 12 hours or more. After that, on the day of experiment, the monkeys were immobilized in the monkey chair after the measurement of body weight, and were acclimated for another one hour or more. An electrostimulation catheter was inserted from a nostril, and electrical stimulation was applied at the position approximately 10 cm above the cardiac part of stomach (the upper esophagus). […] This was carried out three times every 2 to 3 minutes at each evaluation time point, and the average value was used as a nociceptive threshold at each time point. Saline or hydrochloric acid (1.5 N) was perfused from the position approximately 3 cm above the cardiac region (the lower esophagus) to the stomach at an injection rate of 160 mL/h for 30 minutes. The nociceptive thresholds were measured before and after perfusion of saline in the esophagus, before perfusion of hydrochloric acid in the esophagus and at 0, 30, 60, 90 and 120 minutes after perfusion of hydrochloric acid in the esophagus. The vehicle or Compound A (0.01 and 0.1 mg/kg, respectively) was subcutaneously administered 30 minutes before the start of the perfusion of hydrochloric acid. […] The endpoint was assessed by comparing the nociceptive thresholds before and after perfusion of hydrochloric acid, the nociceptive threshold of the vehicle-administered group at each time point and the nociceptive threshold of the Compound A-administered group at each time point. […]

[4] = test system: hypersensitivity in the esophagus evoked by continuous electrical stimulation; experiment: Hypersensitivity model evoked by electrical stimulation (nociceptive threshold)
Description: Cynomolgus monkeys (aged 4 to 6 years, female, Japan Laboratory Animals, Inc., no history of administration) were acclimated to a monkey chair for 2 days or more, and were fasted for 12 hours or more. After that, on the day of experiment, the monkeys were immobilized in the monkey chair after the measurement of body weight, and were acclimated for another one hour or more. An electrostimulation catheter was inserted from a nostril, and electrical stimulation was applied at the position approximately 10 cm above the cardiac part of stomach (the upper esophagus). […] This was carried out three times every 2 to 3 minutes at each evaluation time point, and the average value was used as a nociceptive behavior threshold at each time point. Hypersensitivity was induced by continuous electrical stimulation to the position approximately 3 cm above the cardiac region (the lower esophagus). That is, an electrostimulation catheter was inserted from a nostril, and electrical stimulation was applied at the position of the lower esophagus for 30 minutes. […] The endpoint was assessed by comparing the nociceptive thresholds before and after continuous electrical stimulation, the nociceptive threshold of the vehicle-administered group at each time point and the nociceptive threshold of the Compound A-administered group at each time point. […]

With Cc1cc(C(=O)O)ccc1COc1cc2c(cc1N(CC(C)C)S(=O)(=O)c1nccs1)CCC2 [Compound A, 4-[({6-[isobutyl(1,3-thiazol-2-ylsulfonyl)amino]-2,3-dihydro-1H-inden-5-yl}oxy)methyl]-3-methyl benzoic acid] the “frequency of TLESR” value [1] was “dose-dependently decreased”, the Kp at 180 min ([2]; brain stem / plasma, read-out: percentage to the concentration in plasma, brain stem tissue) was 0.057 and the concentration at 180 min ([2]; brain stem, tissue homogenate, read-out: average concentration in brain stem tissue) was 0.22 ng/mL. The Kp at 180 min ([2]; cerebrospinal fluid / plasma, read-out: percentage to the concentration in plasma, cerebrospinal fluid) was 0.019, the concentration at 180 min ([2]; cerebrospinal fluid, read-out: average concentration in cerebrospinal fluid) was 0.07 ng/mL and the Kp at 180 min ([2]; dorsal root ganglion / plasma, read-out: percentage to the concentration in plasma, dorsal root ganglion) was 0.163. For the same molecule, the concentration at 180 min ([2]; dorsal root ganglion, tissue homogenate, read-out: average concentration in dorsal root ganglion) was 0.62 ng/mL, the Kp at 180 min ([2]; lower esophagus / plasma, read-out: percentage to the concentration in plasma, lower esophagus) was 0.067 and the concentration at 180 min ([2]; lower esophagus, tissue homogenate, read-out: average concentration in lower esophagus) was 0.25 ng/mL. It also gave a concentration at 180 min ([2]; plasma, read-out: average concentration in plasma) of 3.79 ng/mL, a Kp at 180 min ([2]; spinal cord / plasma, read-out: percentage to the concentration in plasma, spinal cord) of 0.051 and a concentration at 180 min ([2]; spinal cord, tissue homogenate, read-out: average concentration in spinal cord) of 0.19 ng/mL. For the same molecule, the Kp at 180 min ([2]; upper esophagus / plasma, read-out: percentage to the concentration in plasma, upper esophagus) was 0.073, the concentration at 180 min ([2]; upper esophagus, tissue homogenate, read-out: average concentration in upper esophagus) was 0.28 ng/mL and the “nociceptive threshold after hydrochloric acid perfusion” value ([3]; 0.1 mg/kg s.c. 30 min before HCl perfusion, FIG. 1) was “suppressed to a normal level”. The “decrease in nociceptive threshold after hydrochloric acid perfusion” value ([3]; Compound A 0.01 and 0.1 mg/kg s.c. 30 min before HCl (1.5 N) perfusion, vs control group, FIG. 1) was “dose-dependently suppressed”, the “duration of suppressive action after hydrochloric acid perfusion” value ([3]; Compound A-administered groups, s.c., time after end of HCl perfusion) was no less than 120 min and the “decrease in nociceptive threshold after continuous electrical stimulation” value ([4]; 0.1 mg/kg s.c. 30 min before 30 min electrical stimulation of lower esophagus, FIG. 2) was “suppressed to a normal level”. The “duration of suppressive action after continuous electrical stimulation” value ([4]; 0.1 mg/kg s.c., time after end of continuous electrical stimulation) was no less than 120 min.
